Columns and labels:
Type in all cases: in vivo
Rorippa indica = experiment: Post-emergence weed control test (greenhouse pot, spray); details: 3 weeks after spraying; for weed control effect (activity level), Rorippa indica, comparison experiment: 300 g/ha
Description: (§1) The activity level standard of harmful plant destruction (i.e. growth inhibition rate) is as follows: • Level 10: completely dead; • Level 9: above 90% growth inhibition rate; • Level 8: above 80% growth inhibition rate; • Level 7: above 70% growth inhibition rate; • Level 6: above 60% growth inhibition rate; • Level 5: above 50% growth inhibition rate; • Level 4: above 40% growth inhibition rate; • Level 3: above 30% growth inhibition rate; • Level 2: above 20% growth inhibition rate; • Level 1: below 20% growth inhibition rate; • Level 0: no effect.
(§2) The above described growth inhibition rates are fresh weight inhibition rates.
(§3) Experiment of post-emergence test: monocotyledonous and dicotyledonous weed seeds as well as main crop seeds (i.e., wheat, corn, rice, soybean, cotton, oilseed rape, millet and sorghum) were put into a plastic pot loaded with soil, then covered with 0.5-2 cm of soil, and the seeds were allowed to grow in good greenhouse environment. The test plants were treated at 4-5 leaf stage 2-3 weeks after sowing. The test compounds of the invention were dissolved in acetone respectively, then added with Tween-80 and diluted by a certain amount of water to give solutions with certain concentrations. The solution was sprayed to the plants with a sprayer. The plants were cultured for 3 weeks in the greenhouse.

Chenopodiaceae = experiment: as above; details: 3 weeks after spraying
Description: as §1, §2, §3

Amaranthus retroflexus = experiment: as above; details: 3 weeks after spraying
Description: as §1, §2, §3

Veronica polita = experiment: as above; details: 3 weeks after spraying; for weed control effect (activity level), Veronica polita, comparison experiment: 300 g/ha
Description: as §1, §2, §3

Setaria viridis = experiment: as above; details: 3 weeks after spraying; for weed control effect (activity level), Setaria viridis, comparison experiment: 300 g/ha; for inhibition at 2000 g/ha: Setaria viridis, 504 h, read-out: weed control effect (activity level, fresh weight growth inhibition rate), Setaria viridis
Description: as §1, §2, §3

Echinochloa crus-galli = experiment: Post-emergence weed control test (comparative experiment); details: 300 g/ha, 3 weeks after spraying
Description: as §1, §2, §3

Digitaria sanguinalis = experiment: as above; details: 300 g/ha, 3 weeks after spraying
Description: as §1, §2, §3

[1] = 504 h, read-out: weed control effect (activity level, fresh weight growth inhibition rate), Chenopodiaceae
[2] = Amaranthus retroflexus, 504 h, read-out: weed control effect (activity level, fresh weight growth inhibition rate), Amaranthus retroflexus
[3] = Veronica polita, 504 h, read-out: weed control effect (activity level, fresh weight growth inhibition rate), Veronica polita

| Compound | weed control effect (activity level), Rorippa indica, comparison experiment (Rorippa indica) | weed control effect (activity level), Veronica polita, comparison experiment (Veronica polita) | weed control effect (activity level), Setaria viridis, comparison experiment (Setaria viridis) | weed control effect (activity level), Echinochloa crus-galli, comparison experiment (Echinochloa crus-galli) | weed control effect (activity level), Digitaria sanguinalis, comparison experiment (Digitaria sanguinalis) | inhibition at 2000 g/ha (Chenopodiaceae; [1]) [%] | inhibition at 2000 g/ha (Amaranthus retroflexus; [2]) [%] | inhibition at 2000 g/ha (Veronica polita; [3]) [%] | inhibition at 2000 g/ha (Setaria viridis) [%] | also measured |
| --- | --- | --- | --- | --- | --- | --- | --- | --- | --- | --- |
| Cn1nccc1-c1nnc(Cl)cc1O [Compound 29] | 10 | 9 (Level 9: above 90% growth inhibition rate) | 10 | 8 (Level 8: above 80% growth inhibition rate) | 6 (Level 6: above 60% growth inhibition rate) |  |  |  |  | weed control effect (activity level, fresh weight growth inhibition rate), Rorippa indica (Rorippa indica; 3000 g/ha): 10 (Level 10: completely dead); weed control effect (activity level, fresh weight growth inhibition rate), Chenopodiaceae (Chenopodiaceae; 3000 g/ha): 10 (Level 10: completely dead); weed control effect (activity level, fresh weight growth inhibition rate), Amaranthus retroflexus (Amaranthus retroflexus; 3000 g/ha): 10 (Level 10: completely dead); weed control effect (activity level, fresh weight growth inhibition rate), Veronica polita (Veronica polita; 3000 g/ha): 10 (Level 10: completely dead) |
| Cc1cc(-c2nnc(Cl)cc2OC(=O)N2CCOCC2)n(C)n1 [Compound 1-9] |  |  |  |  |  | 100 | 100 | 100 | 100 |  |
| CCCCCCCCSC(=O)Oc1cc(Cl)nnc1-c1ccccc1 [Control Compound B, reference compound] | 3 (Level 3: above 30% growth inhibition rate) | 5 (Level 5: above 50% growth inhibition rate) | 2 (Level 2: above 20% growth inhibition rate) | 0 | 0 |  |  |  |  |  |
| Cc1cc(-c2nnc(Cl)cc2OC(=S)Oc2cccs2)n(C)n1 [Compound 1-5] |  |  |  |  |  | 100 | 100 | 100 | 100 |  |
| Cc1cc(-c2nnc(Cl)cc2OC(C)OC(=O)OC(C)C)n(C)n1 (stereo not shown) [Compound 1-6] |  |  |  |  |  | 100 | 100 | 100 | 100 |  |
| CCSC(=O)Oc1cc(Cl)nnc1-c1cc(C)nn1C [Compound 1-8] |  |  |  |  |  | 100 | 100 | 100 | 100 |  |
| CCCCCOC(=O)Oc1cc(Cl)nnc1-c1cc(C)nn1C [Compound 1-1] | 10 | 10 | 10 | 8 (Level 8: above 80% growth inhibition rate) | 8 (Level 8: above 80% growth inhibition rate) | 100 | 100 | 100 | 100 |  |
| Oc1cc(Cl)nnc1-c1ccccc1 [Control Compound A, reference compound] | 2 (Level 2: above 20% growth inhibition rate) | 5 (Level 5: above 50% growth inhibition rate) | 2 (Level 2: above 20% growth inhibition rate) | 0 | 0 |  |  |  |  |  |
| Cn1cncc1-c1nnc(Cl)cc1O [Compound 4] |  |  |  |  |  |  |  |  |  | weed control effect (activity level, fresh weight growth inhibition rate), Rorippa indica (Rorippa indica; 3000 g/ha): 10 (Level 10: completely dead); weed control effect (activity level, fresh weight growth inhibition rate), Chenopodiaceae (Chenopodiaceae; 3000 g/ha): 10 (Level 10: completely dead); weed control effect (activity level, fresh weight growth inhibition rate), Amaranthus retroflexus (Amaranthus retroflexus; 3000 g/ha): 10 (Level 10: completely dead); weed control effect (activity level, fresh weight growth inhibition rate), Veronica polita (Veronica polita; 3000 g/ha): 10 (Level 10: completely dead) |
| Cc1cc(-c2nnc(Cl)cc2O)n(C)n1 [Compound 1] | 10 | 10 | 10 | 8 (Level 8: above 80% growth inhibition rate) | 7 (Level 7: above 70% growth inhibition rate) |  |  |  |  | inhibition at 3000 g/ha (Rorippa indica; Rorippa indica, 504 h, 3000 g/ha, read-out: weed control effect (activity level, fresh weight growth inhibition rate), Rorippa indica): 100%; inhibition at 3000 g/ha (Chenopodiaceae; 504 h, 3000 g/ha, read-out: weed control effect (activity level, fresh weight growth inhibition rate), Chenopodiaceae): 100%; inhibition at 3000 g/ha (Amaranthus retroflexus; Amaranthus retroflexus, 504 h, 3000 g/ha, read-out: weed control effect (activity level, fresh weight growth inhibition rate), Amaranthus retroflexus): 100%; inhibition at 3000 g/ha (Veronica polita; Veronica polita, 504 h, 3000 g/ha, read-out: weed control effect (activity level, fresh weight growth inhibition rate), Veronica polita): 100% |
| Cn1nc([N+](=O)[O-])cc1-c1nnc(Cl)cc1O [Compound 72] |  |  |  |  |  |  |  |  |  | weed control effect (activity level, fresh weight growth inhibition rate), Rorippa indica (Rorippa indica; 3000 g/ha): 10 (Level 10: completely dead); weed control effect (activity level, fresh weight growth inhibition rate), Chenopodiaceae (Chenopodiaceae; 3000 g/ha): 10 (Level 10: completely dead); weed control effect (activity level, fresh weight growth inhibition rate), Amaranthus retroflexus (Amaranthus retroflexus; 3000 g/ha): 10 (Level 10: completely dead); weed control effect (activity level, fresh weight growth inhibition rate), Veronica polita (Veronica polita; 3000 g/ha): 10 (Level 10: completely dead) |
